{"source": "patent US20110311601A1", "about": "“ANTIMICROBIAL MEDICAL DEVICES” (priority 2010, published 2011)", "key": {"[1]": {"test_system": "Escherichia coli strain DB3.1", "assay": "micro-dilution assay of coated titanium pins and peptide controls (bacterial killing, CFU)", "assay_type": "cell-based", "experimental": "In a first experiment 10 μg of hβD2 was coated to three different SAM Hexadecyltrimethoxysilane (SAM 1), Dimethoxymethyloctylsilane (SAM 2), and oxidized Allyltrimethoxysilane (SAM 3) of the modified titanium pins. The anti-bacterial activity of the hβD2-coated pins was tested by a micro-dilution assay. Therefore, Escherichia coli strain DB3.1 (Invitrogen, Cat. No. 11782-018) was used. E. coli was streaked from a glycerol stock onto a Brain Heart Infusion (BHI) agar plate (3.7% (w/v) BHI Bouillon, 1.5% (w/v) Agar), grown overnight at 37° C. and subsequently used to inoculate 40 ml of 3.7% (w/v) BHI Bouillon without any antibiotics in 100 ml flasks. Fresh cells were harvested by centrifugation at 16000 rpm for 10 min and washed twice with 10 mM sodium phosphate buffer, pH 7.2. The optical density was adjusted to 10^4 cells/ml. For anti-bacterial testing, a single pin coated with hβD2 was incubated in one well of a microtiter plate containing 100 μl of the bacterial suspension.\nFunctionalized titanium pins without hβD2 served as negative controls (SAM1-n, SAM2-n, SAM3-n, SAM4::Col-NHS-n, SAM4::Col-Glu-n). In addition, 5 independent control reactions consisting of hβD2 in a final amount of 0 (NC), 0.02 (PC1), 0.2 (PC2), 2 (PC3) and 10 (PC4) μg were examined in parallel. To determine the specificity of the anti-bacterial activity of hβD2, 10 μl (10 μg/ml in PBS) of polyclonal monospecific anti-hβD2 antibodies were co-incubated with 10 μg of hβD2 and bacterial cells (Table I, PC4/ab).\nThe microtiter plates were incubated for 2 h at 37° C. The kinetic studies were performed by replacing the bacterial suspension, after 2 h of cultivation with a freshly pre-cultured E. coli solution, which contained the same bacterial concentration, and cultivating for another 2 h and so on. Colony forming units (CFU) were determined after plating 100 μl of a 1:100 dilution of the bacterial suspension on petri dishes with BHI medium and incubating them overnight at 37° C. For every group of the functionalized titanium pins and the controls, 5 independent anti-bacterial assays were performed. A control (NC) of bacterial growth was examined for every independent assay. The number of CFU on the control (consisting of a single petri dish) was set to 0% bactericidal activity. The reduction in the CFU resulting from the anti-bacterial activity of hβD2 was related to the absolute CFU of the control within every independent assay. This value, given as a percentage of the bacterial “killing” activity, was used to describe the antibacterial activity. This kind of normalisation of the antibacterial data was performed for every experimental group.\nTo examine the release behavior of hβD2 that is adsorbed by different SAM modified titanium pins a time kinetic experiment was performed. The experiment was performed analogous to Example 2. For this experiment 80 μg of hβD2 was adsorbed to three different SAMs Hexadecyltrimethoxysilane (SAM1), Dimethoxymethyloctylsilane (SAM2), and oxidized Allyltrimethoxysilane (SAM3) of the modified titanium pins.\nSince it is known that collagen has a positive impact on wound healing, functionalised titanium pins with collagen were investigated. Two different cross-linking strategies for collagen on SAM3 and SAM4 were applied as described in Example 1: (i) a covalently binding strategy with the NHS/EDC cross-linking system, and (ii) the use of glutaraldehyde. Successful binding of collagen was monitored by collagen-specific DirectRed staining (as described in Example 1). […] Additionally 80 μg hβD2 was adsorbed to collagen functionalized SAM3 and SAM4 modified titanium pins, respectively. For monitoring the antibacterial activity of the bio-coated pins the experiment was performed analogous to Example 3. […]"}, "[2]": {"test_system": "Escherichia coli strain DB3.1", "assay": "microdilution assay of hβD2 coated biopolymers (percentage killing)", "assay_type": "cell-based", "experimental": "Microdilution assay. In the microdilution assay the microorganisms were exposed to a potential bio-active substance in liquid surrounding, thus free to move. This potential bio-active substance was either homogenously dispersed in the liquid surrounding by active mixing at the beginning of the tests or could spread out of the sample during incubation time. The bioactivity was measured in percentage killing, wherein the number of colony forming units (CFU) in a control without test substance was set to 0% killing and a reduction in the cell number to zero was set to 100% killing.\nFresh cells were harvested by centrifugation at 1600 rpm for 10 min, the supernatant was removed and the cell pellet was resuspended in 5 ml 10 mM sodium phosphate buffer. This procedure was repeated twice. The optical density was adjusted to OD600 of 0.500 with 10 mM sodium phosphate buffer. 100 μl of the bacterial suspension was pipetted in one well of a microtiter plate without optimized surface. 10 μl test substance or test sample was added. In case of a test substance, the mixture was homogenized by absorbing the mixture several times with a pipette. The microtiter plate is then closed with parafilm and incubated at 37° C. for 2 h. After incubation the substances in the wells were mixed by a pipette. […] For evaluation, the grown colonies were counted.\nThe microdilution assay facilitates the examination of the hβD2 release kinetics of the biopolymers and thus allowed conclusions on what amounts of hβD2 in which time could be released. For comparing on evaluation of the assay the effect of directly applied hβD2 amounts with the effect of hβD2 amounts applied on biopolymers, the achieved percentage killing of bacteria was compared to the killing rate of the hβD2 standard series in the microdilution assays.\nThe collagen scaffolds and polylactide matrices were examined in the microdilution assay regarding their hβD2 release kinetics. Since the incubation time of the samples in the bacterial suspension is limited, the samples were stored at −25° C. after the test and until completion of a further assay. The thawed samples were then used in a new assay and were incubated again."}}, "note": "Values joined by “and” are separate entries in the source; they are usually repeats but may differ in a detail not shown here. Equal entries are not always repeated. Where no end group is shown, it is not given here.", "data": [{"substance": "human β-defensin-2 (GIGDPVTCLKSGAICHPVFCPRRYKQIGTCGLPGTKCCKKP; ends and bridges not checked; cysteine pairing not given here) [hβD2, recombinant hβD2]", "values": [{"measurement": "antmicrobial activity, bacterial killing [%]", "setting": "[1]; control PC1: 0.02 μg rHuβD2, 2 h", "result": "14.80 ± 2.78", "unit": "%"}, {"measurement": "antmicrobial activity, bacterial killing [%]", "setting": "[1]; control PC2: 0.20 μg rHuβD2, 2 h", "result": "32.38 ± 2.93", "unit": "%"}, {"measurement": "antmicrobial activity, bacterial killing [%]", "setting": "[1]; control PC3: 2.00 μg rHuβD2, 2 h", "result": "92.80 ± 3.91", "unit": "%"}, {"measurement": "antmicrobial activity, bacterial killing [%]", "setting": "[1]; control PC4/ab: 10.00 μg rHuβD2 co-incubated with polyclonal anti-hβD2 antibodies, 2 h", "result": 0, "unit": "%"}, {"measurement": "antmicrobial activity, bacterial killing [%]", "setting": "[1]; control PC4: 10.00 μg rHuβD2, 2 h", "result": 100, "unit": "%"}, {"measurement": "bacteria killing", "setting": "[2]; 2 μg hβD2 on collagen scaffold, after 13 hours", "result": 18, "unit": "%"}, {"measurement": "killing rate", "setting": "[2]; 2 μg hβD2 on collagen scaffold, first 2 hours", "result": "≤ 36", "unit": "%"}, {"measurement": "killing rate", "setting": "[2]; 4 μg hβD2 and 5 μg chondroitin sulphate on collagen scaffold, 0-2 hours", "result": 54, "unit": "%"}, {"measurement": "killing", "setting": "[2]; 4 μg hβD2 and 20 μg spermidine on collagen scaffold, 0-2 hours", "result": 19, "unit": "%"}, {"measurement": "killing rate", "setting": "[2]; 4 μg hβD2 on collagen scaffold impregnated with 20 μl of 0.1 M L-glutamic acid solution, 0-2 hours", "result": 53, "unit": "%"}, {"measurement": "killing rate", "setting": "[2]; 4 μg hβD2 on collagen scaffold impregnated with 20 μl of 0.1 M L-lysine solution, 0-2 hours", "result": 11, "unit": "%"}, {"measurement": "killing", "setting": "[2]; 4 μg hβD2 on collagen scaffold pre-treated with 10 μl of 0.1% gelatine solution, 0-2 hours", "result": 94, "unit": "%"}, {"measurement": "killing rate", "setting": "[2]; 4 μg hβD2 on collagen scaffold treated with 5 μg BSA, 0-2 hours", "result": 98, "unit": "%"}, {"measurement": "killing of the bacteria", "setting": "[2]; 4 μg hβD2 on collagen scaffold treated with 5 μg HAS, 0-2 hours", "result": 100, "unit": "%"}, {"measurement": "killing rate", "setting": "[2]; 4 μg hβD2 on collagen scaffold treated with 60 μg poly-L-glutamic acid, 0-2 hours", "result": 23, "unit": "%"}, {"measurement": "killing rate", "setting": "[2]; 4 μg hβD2 on collagen scaffold without pre-treatment, first 2 hours", "result": "89% and 86%"}, {"measurement": "killing", "setting": "[2]; 4 μg hβD2 on collagen scaffold, 17th hour", "result": 25, "unit": "%"}, {"measurement": "bio-activity of the scaffolds", "setting": "[2]; 4 μg hβD2 on collagen scaffold, after 20 hours", "result": "depleted"}, {"measurement": "killing (given as release amount in %)", "setting": "[2]; 4 μg hβD2 on collagen scaffold, first 5 hours", "result": 38, "unit": "%"}, {"measurement": "bacteria killing", "setting": "[2]; 25 μg hβD2 on polylactide matrix coated with collagen and chondroitin sulphate, first two hours", "result": 89, "unit": "%"}, {"measurement": "bacteria killing", "setting": "[2]; 25 μg hβD2 on polylactide matrix coated with collagen, first two hours", "result": 100, "unit": "%"}, {"measurement": "bacteria killing", "setting": "[2]; 25 μg hβD2 on uncoated polylactide matrix, first two hours", "result": 100, "unit": "%"}, {"measurement": "killing", "setting": "[2]; 30 μg hβD2 on collagen scaffold, after 13 hours", "result": 29, "unit": "%"}, {"measurement": "killing rate", "setting": "[2]; 30 μg hβD2 on collagen scaffold, after 17 hours", "result": 22, "unit": "%"}, {"measurement": "activity of the scaffold", "setting": "[2]; 30 μg hβD2 on collagen scaffold, after 20 hours", "result": "inactive"}, {"measurement": "killing rate", "setting": "[2]; 30 μg hβD2 on collagen scaffold, first 5 hours", "result": 86, "unit": "%"}, {"measurement": "killing (given as release amount in %)", "setting": "[2]; 125 μg hβD2 on collagen scaffold, after 5 hours", "result": 93, "unit": "%"}]}]}
